One compound from PMC6934184, “Selective DNA-PKcs inhibition extends the therapeutic index of localized radiotherapy and chemotherapy” (The Journal of Clinical Investigation, 2019) can be followed below.

For the experiment, the target named is T1, ACVR2A (Homo sapiens, UniProt P27037).
T1 construct: purchased Thermo Fisher Scientific (Life Technologies) SelectScreen
Kind of experiment: SelectScreen LanthaScreen. Format: binding. As to conditions: read-out: % displacement. The essentials:
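NU5455 was profiled across the SelectScreen Broad panel of kinase activity and binding assays. Z'LYTE reactions such as CSF1R ran at apparent Km ATP, while the Adapta CAMK1 assay used ATP listed as 10. Values are given as percent.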

T1 sequence (P27037 20-513): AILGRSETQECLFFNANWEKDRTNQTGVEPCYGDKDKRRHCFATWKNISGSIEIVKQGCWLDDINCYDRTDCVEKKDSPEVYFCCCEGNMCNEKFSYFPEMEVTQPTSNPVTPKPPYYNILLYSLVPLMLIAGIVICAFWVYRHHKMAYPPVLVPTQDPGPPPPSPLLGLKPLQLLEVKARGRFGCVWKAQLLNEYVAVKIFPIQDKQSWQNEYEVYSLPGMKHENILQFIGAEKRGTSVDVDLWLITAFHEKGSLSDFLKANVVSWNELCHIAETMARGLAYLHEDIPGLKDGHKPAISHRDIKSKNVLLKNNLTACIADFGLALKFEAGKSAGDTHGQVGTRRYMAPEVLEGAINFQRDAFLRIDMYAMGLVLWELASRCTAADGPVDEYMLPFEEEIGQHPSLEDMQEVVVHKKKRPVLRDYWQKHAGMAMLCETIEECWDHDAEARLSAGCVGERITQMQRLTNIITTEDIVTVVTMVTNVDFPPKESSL

In the case of `CN(C(=O)CN1CCOCC1)c1ccc2sc3c(-c4cccc5c(=O)cc(N6CC7CCC(C6)O7)oc45)cccc3c2c1` [NU5455], the inhibition at 1 µM was 2.5%.
